Data: publication PMC6155812, “Synthesis, Anti-Breast Cancer Activity, and Molecular Docking Study of a New Group of Acetylenic Quinolinesulfonamide Derivatives” (Molecules : A Journal of Synthetic Chemistry and Natural …, 2017)
Read-outs that look alike come from different tables or passages of the source.

How the values were obtained:
[1] = test system: MCF-7 (human adenocarcinoma) cells; experiment: WST-1 antiproliferative assay, MCF-7; type: cell-based; conditions: 3–4 days, 0.5–250 µM, neg = negative in concentration used; for IC50: read-out: IC50 ± SD, MCF-7
Excerpt: (§1) Encouraged by promising results in the field of antiproliferative derivatives of acetylenic sulfanylquinoline derivatives, in this study the decision was made to combine the biological potentials of sulfamoylquinoline and alkynyl moieties, with the intention of obtaining compounds with better activity against breast cancer cell lines. The SAR analyses of the acetylenic sufamoylquinoline were based on the cell growth inhibition potencies on the MCF-7 (human adenocarcinoma), MDA-MB-231 and T-47D (human ductal carcinoma) cells using the WST-1 assay. The results from the in vitro cytotoxicity assay are expressed as the concentration of compound (µM) that inhibited the proliferation of 50% of the tumor cells, compared to the control untreated cells (IC50). Cisplatin was used as a positive control to induce cell death.
(§2) The cell lines (MCF-7, MDA-MB-231, and nontumor HFF-1) were cultured and kept in Dubecco’s modified Eagle medium (DMEM) supplemented with 10% fetal bovine serum (FBS) 1.000 IU·mL^−1 penicillin and 10 mg·m^−1·mL^−1 streptomycin in atmosphere with 5% CO2 at 37 °C. The cells were seeded using a series of standard 96-well plates (Corning). Test compounds were prepared at a concentration of 5.0 mM dimethyl sulfoxide (DMSO). Freshly prepared dilutions of the test compounds in a culture medium at a concentration of 0.5–250 µM were added to the microtiter plates and the cells were grown for 3–4 days. Solvent control (DMSO) was included to check its potential inhibitory activity at the concentration used. After incubation, the cell growth rate was evaluated by performing a WST-1 assay. The amount of formazan produced was measured at 450 nm. Expermentally determined absorbance values were transformed into the cell percentage of growth as described previously. Each test point was performed in triplicate for each tested compound cocentration. The results were statistically analyzed using PraphPad Prism 6 software (Graphpad Software, Inc., La Jolla, CA, USA).

[2] = test system: T47D (human ductal carcinoma) cells; experiment: WST-1 antiproliferative assay, T47D; type: cell-based; conditions: WST-1 assay, 3–4 days, 0.5–250 µM, neg = negative in concentration used; for IC50: read-out: IC50 ± SD, T47D
Excerpt: as §1, §2

MDA-MB-231 cells = experiment: WST-1 antiproliferative assay, MDA-MB-231; type: cell-based, human; conditions: 3–4 days, 0.5–250 µM, neg = negative in concentration used, read-out: IC50 ± SD, MDA-MB-231
Excerpt: as §1, §2

HFF-1 normal fibroblasts = experiment: WST-1 cytotoxicity assay, normal fibroblasts HFF-1; type: cell-based, human; conditions: 3–4 days, 0.5–250 µM, neg = negative in concentration used; for IC50: read-out: IC50 ± SD, HFF-1
Excerpt: as §1, §2

[3] = Homo sapiens, MCF7, WST-1 assay
[4] = Homo sapiens, MDA-MB-231, WST-1 assay
[5] = Homo sapiens, HFF-1, WST-1 assay

| Structure (SMILES) | IC50 [1, 3] [µM] | IC50 ± SD, T47D [2] | IC50 (MDA-MB-231 cells; [4]) [µM] | IC50 ± SD, HFF-1 (HFF-1 normal fibroblasts; WST-1 assay) | melting point [°C] | IC50 ([2]; Homo sapiens, T47D) [µM] | IC50 (HFF-1 normal fibroblasts; [5]) [µM] | IC50 (MDA-MB-231 cells; WST-1 assay) [µM] | IC50 ± SD, MCF-7 ([1]; WST-1 assay) | IC50 ([2]; listed as 4-(3-propynylthio)-7-[N-methyl-N-(3-propynyl)sulfamoyl]quinoline) [µM] | IC50 [2] [µM] | IC50 ([1]; WST-1 assay) [µM] | IC50 (HFF-1 normal fibroblasts; WST-1 assay) [µM] |
| --- | --- | --- | --- | --- | --- | --- | --- | --- | --- | --- | --- | --- | --- |
| C#CCN(C)S(=O)(=O)c1cc2ccccc2nc1Cl [2a, 2-Chloro-3-[N-methyl-N-(3-propynyl)sulfamoyl]quinoline] | 351 ± 6.32 | neg ^1 | 140 ± 1.98 | neg | 110 to 111 |  |  |  |  |  |  |  |  |
| C#CCN(C)S(=O)(=O)c1ccc2nc(Cl)ccc2c1 [2b, 2-Chloro-6-[N-methyl-N-(3-propynyl)sulfamoyl]quinoline] | 22.9 ± 1.45 |  | 0.24 ± 0.01 | neg | 140 to 141 | 0.3 ± 0.03 |  |  |  |  |  |  |  |
| C#CCN(C)S(=O)(=O)c1cnc2ccccc2c1Cl [2c, 4-Chloro-3-[N-methyl-N-(3-propynyl)sulfamoyl]quinoline] |  |  | 0.27 ± 0.02 |  | 120 to 121 | 2.24 ± 0.11 | 85.4 ± 1.6 |  |  |  |  |  |  |
| C#CCN(C)S(=O)(=O)c1ccc2nccc(Cl)c2c1 [2d, 4-Chloro-6-[N-methyl-N-(3-propynyl)sulfamoyl]quinoline] | 233.8 ± 1.56 |  | 180 ± 2.35 |  | 124 to 125 | 292 ± 2.34 | 425.2 ± 1.46 |  |  |  |  |  |  |
| C#CCN(C)S(=O)(=O)c1ccc2c(Cl)ccnc2c1 [2e, 4-Chloro-7-[N-methyl-N-(3-propynyl)sulfamoyl]quinoline] |  |  | 59.3 ± 1.56 | neg | 119 to 120 | 26.8 ± 0.67 |  |  |  |  |  |  |  |
| C#CCN(C)S(=O)(=O)c1cccc2c(Cl)ccnc12 [2f, 4-Chloro-8-[N-methyl-N-(3-propynyl)sulfamoyl]quinoline] | 61.2 ± 1.65 |  | 204 ± 3.1 |  | 130 to 133 | 295.6 ± 2.56 | 153 ± 3 |  |  |  |  |  |  |
| C#CCSc1nc2ccccc2cc1S(=O)(=O)N(C)CC#C [5a, 2-(3-Propynylthio)-3-[N-methyl-N-(3-propynyl)sulfamoyl]quinoline] | 288 ± 3.45 | neg | 11.8 ± 0.87 | neg | 100 to 101 |  |  |  |  |  |  |  |  |
| C#CCSc1ccc2cc(S(=O)(=O)N(C)CC#C)ccc2n1 [5b, 2-(3-Propynylthio)-6-[N-methyl-N-(3-propynyl)sulfamoyl]quinoline] | 18.4 ± 0.98 |  |  | neg | 164 to 165 | 182 ± 3.23 |  | 0.27 ± 0.03 |  |  |  |  |  |
| C#CCSc1c(S(=O)(=O)N(C)CC#C)cnc2ccccc12 [5c, 4-(3-Propynylthio)-3-[N-methyl-N-(3-propynyl)sulfamoyl]quinoline] |  |  | 116 ± 2.13 | neg | 101 to 102 | 205 ± 6.02 |  |  | neg |  |  |  |  |
| C#CCSc1ccnc2ccc(S(=O)(=O)N(C)CC#C)cc12 [5d, 4-(3-Propynylthio)-6-[N-methyl-N-(3-propynyl)sulfamoyl]quinoline] | 236.8 ± 2.34 | neg | 202 ± 5.46 | neg | 139 to 140 |  |  |  |  |  |  |  |  |
| C#CCSc1ccnc2cc(S(=O)(=O)N(C)CC#C)ccc12 [5e, 4-(3-Propynylthio)-7-[N-methyl-N-(3-propynyl)sulfamoyl]quinoline] | 0.27 ± 0.03 |  | 7.12 ± 0.78 |  | 113 to 114 |  | 276.1 ± 2.6 |  |  | 0.07 | 0.21 ± 0.01 |  |  |
| C#CCSc1ccnc2c(S(=O)(=O)N(C)CC#C)cccc12 [5f, 4-(3-Propynylthio)-8-[N-methyl-N-(3-propynyl)sulfamoyl]quinoline] | 13.09 ± 0.11 |  | 21.2 ± 0.96 |  | 119 to 120 | 0.27 ± 0.03 | 366.1 ± 1.46 |  |  |  |  |  |  |
| C#CC[Se]c1nc2ccccc2cc1S(=O)(=O)N(C)CC#C [6a, 2-(3-Propynylseleno)-3-[N-methyl-N-(3-propynyl)sulfamoyl]quinoline] | 237.9 ± 2.11 |  | 0.42 ± 0.01 | neg | 109 to 110 | 146 ± 1.98 |  |  |  |  |  |  |  |
| C#CC[Se]c1ccc2cc(S(=O)(=O)N(C)CC#C)ccc2n1 [6b, 2-(3-Propynylseleno)-6-[N-methyl-N-(3-propynyl)sulfamoyl]quinoline] | 22.72 ± 0.12 |  |  |  | 179 to 180 | 10.6 ± 0.15 | 92.9 ± 2 | 1.32 ± 0.12 |  |  |  |  |  |
| C#CC[Se]c1c(S(=O)(=O)N(C)CC#C)cnc2ccccc12 [6c, 4-(3-Propynylseleno)-3-[N-methyl-N-(3-propynyl)sulfamoyl]quinoline] | 113 |  | 17.6 ± 0.87 | neg | 122 to 123 | 313 ± 7.98 |  |  |  |  |  |  |  |
| C#CC[Se]c1ccnc2ccc(S(=O)(=O)N(C)CC#C)cc12 [6d, 4-(3-Propynylseleno)-6-[N-methyl-N-(3-propynyl)sulfamoyl]quinoline] | 259 ± 5.45 | neg | 0.68 ± 0.09 |  | 139 to 140 |  | 331 ± 4 |  |  |  |  |  |  |
| C#CC[Se]c1ccnc2cc(S(=O)(=O)N(C)CC#C)ccc12 [6e, 4-(3-Propynylseleno)-7-[N-methyl-N-(3-propynyl)sulfamoyl]quinoline] | 109 ± 2.11 |  | 23.5 ± 1.02 | neg | 108 to 109 | 160 ± 3.23 |  |  |  |  |  |  |  |
| C#CC[Se]c1ccnc2c(S(=O)(=O)N(C)CC#C)cccc12 [6f, 4-(3-Propynylseleno)-8-[N-methyl-N-(3-propynyl)sulfamoyl]quinoline] | 0.26 ± 0.01 |  | 64.5 ± 1.98 |  | 111 to 115 | 55.6 ± 1.78 | 317 ± 5.46 |  |  |  |  |  |  |
| N.N.[Cl][Pt][Cl] [Cisplatin, reference compound] |  |  |  |  |  |  |  | 17.6 ± 0.31 |  |  | 30.3 ± 0.34 | 77.76 ± 0.76 | 7.2 ± 0.6 |
| C#CCSc1ccc2ncc(SCC#C)cc2c1 [compound 11, 3,6-Di(3-propynylthio)quinoline] | 7.36 ± 0.45 |  | 8.73 ± 0.78 |  | 97 to 98 | 127 ± 2.01 | 176 ± 3 |  |  |  |  |  |  |
| C#CCN(C)S(=O)(=O)c1ccc2ncc(S(=O)(=O)N(C)CC#C)cc2c1 [compound 12, 3,6-Di[N-methyl-N-(3-propynyl)sulfamoyl]quinoline] | 3.14 ± 0.34 |  | 2.86 ± 0.34 |  | 138 to 139 | 2.5 ± 0.09 | 375.5 ± 3 |  |  |  |  |  |  |
| O=S(=O)(Cl)c1cnc2ccc(Cl)cc2c1 [compound 13, 6-chloro-3-chlorosulfonylquinoline] |  |  |  |  | 109 to 110 |  |  |  |  |  |  |  |  |
| C#CCN(C)S(=O)(=O)c1cnc2ccc(Cl)cc2c1 [compound 14, 6-Chloro-3-[N-methyl-N-(3-propynyl)sulfamoyl]quinoline] | 118 ± 2.04 |  | 26.8 ± 1.45 |  | 146 to 147 | 11.7 ± 1.11 | 71.8 ± 1.6 |  |  |  |  |  |  |
